Among the data in patent US20180148418A1, “AMIDO-SUBSTITUTED CYCLOHEXANE DERIVATIVES” (Bayer Pharma Aktiengesellschaft, priority 2015, published 2018) are IC50 values, retold here.

The IC50 is the point on the concentration scale where inhibition reaches its midpoint.

Test [1] concerns wildtype Wnt signaling cascade. The experiment in a line: HEK293 TOP assay (Super TopFlash luciferase reporter, Wnt-3a stimulated). Conditions: Homo sapiens, HEK293, 16 h, HEK293 TOP reporter cells, Wnt3a at EC50, 16 hours. It counts as cell-based. The essentials:
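Compound series (50 μM down to 15 nM, 3.16-fold) diluted from DMSO 50-fold into CAFTY buffer, pH 7.4, 2 mM Ca^2+, 0.01% BSA, applied to Wnt-3a-stimulated HEK293 TopFlash and FOP reporter lines in parallel. Cells seeded 10000/well 24 h before; luciferase signal measured.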
For orientation: In a reporter assay the amount or activity of a reporter protein is the signal.

For test [2], the target named is T1, TNKS2 (Homo sapiens, UniProt Q9H2K2).
T1 construct: purchased BPS Bioscience, San Diego, USA 80572 (TNKS2 Histone Ribosylation Assay Kit)
T1 sequence (Q9H2K2 1-1166): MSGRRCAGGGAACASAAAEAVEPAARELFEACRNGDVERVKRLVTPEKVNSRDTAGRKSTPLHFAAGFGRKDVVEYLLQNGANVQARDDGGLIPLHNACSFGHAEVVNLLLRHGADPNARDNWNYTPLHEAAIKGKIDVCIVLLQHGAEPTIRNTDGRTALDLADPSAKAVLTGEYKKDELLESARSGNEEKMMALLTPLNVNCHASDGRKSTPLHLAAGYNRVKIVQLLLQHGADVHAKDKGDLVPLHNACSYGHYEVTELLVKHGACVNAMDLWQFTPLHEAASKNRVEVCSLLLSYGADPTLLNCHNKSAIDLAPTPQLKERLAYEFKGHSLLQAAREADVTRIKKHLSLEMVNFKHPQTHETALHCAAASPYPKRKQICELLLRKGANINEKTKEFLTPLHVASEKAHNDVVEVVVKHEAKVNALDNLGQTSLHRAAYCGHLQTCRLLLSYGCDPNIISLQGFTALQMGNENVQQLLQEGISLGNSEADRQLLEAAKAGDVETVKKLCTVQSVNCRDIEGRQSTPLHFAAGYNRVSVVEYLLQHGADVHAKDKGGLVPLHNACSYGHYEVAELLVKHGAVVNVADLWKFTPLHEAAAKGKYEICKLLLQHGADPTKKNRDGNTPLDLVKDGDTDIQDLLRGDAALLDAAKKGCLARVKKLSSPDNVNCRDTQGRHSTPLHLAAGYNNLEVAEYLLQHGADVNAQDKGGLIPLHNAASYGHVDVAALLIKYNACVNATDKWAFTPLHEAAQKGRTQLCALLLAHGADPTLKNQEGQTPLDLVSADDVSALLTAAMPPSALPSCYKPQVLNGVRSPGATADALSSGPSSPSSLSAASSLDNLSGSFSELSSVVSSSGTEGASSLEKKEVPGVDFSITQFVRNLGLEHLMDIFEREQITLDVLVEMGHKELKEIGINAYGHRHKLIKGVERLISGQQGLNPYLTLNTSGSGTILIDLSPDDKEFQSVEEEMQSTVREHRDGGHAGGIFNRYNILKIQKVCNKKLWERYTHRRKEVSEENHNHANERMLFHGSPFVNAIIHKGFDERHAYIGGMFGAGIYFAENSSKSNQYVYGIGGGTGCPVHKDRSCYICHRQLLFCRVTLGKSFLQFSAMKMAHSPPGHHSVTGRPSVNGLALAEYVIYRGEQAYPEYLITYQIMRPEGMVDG
As to the kind of experiment: TNKS2 Assay B (auto-parsylation, [3H]-NAD+ SPA). The class given is biochemical. The following applies: 6 nM TNKS2, auto-parsylation, over night at room temperature.

With `O=C(NC12CCC(C(=O)Nc3c(F)cc(F)cc3Cl)(CC1)CC2)c1cnc2cccnn12` [Example 123, N-{4-[(2-chloro-4,6-difluorophenyl)carbamoyl]bicyclo[2.2.2]oct-1-yl}imidazo[1,2-b]pyridazine-3-carboxamide], the results for the IC50 in test [1] and in test [2] were 660 nM and 480 nM, respectively.
For `O=C(NC12CCC(C(=O)Nc3cnccc3Cl)(CC1)CC2)c1cnc2cccnn12` [Example 124, N-{4-[(4-chloropyridin-3-yl)carbamoyl]bicyclo[2.2.2]oct-1-yl}imidazo[1,2-b]pyridazine-3-carboxamide], in that order: 290 nM and 260 nM.
For `Cc1cc(C)n2ncc(C(=O)NC34CCC(C(=O)Nc5ccc(F)cc5Cl)(CC3)CC4)c2n1` [Example 125, N-{4-[(2-chloro-4-fluorophenyl)carbamoyl]bicyclo[2.2.2]oct-1-yl}-5,7-dimethylpyrazolo[1,5-a]pyrimidine-3-carboxamide] the same measures were 69 nM and 130 nM.
For `Cc1cc(C)n2ncc(C(=O)NC34CCC(C(=O)Nc5cc(C)c(F)cc5Cl)(CC3)CC4)c2n1` [Example 126, N-{4-[(2-chloro-4-fluoro-5-methylphenyl)carbamoyl]bicyclo[2.2.2]oct-1-yl}-5,7-dimethylpyrazolo[1,5-a]pyrimidine-3-carboxamide], in that order: 190 nM and 65 nM.
As to `Cc1cc(C)n2ncc(C(=O)NC34CCC(C(=O)Nc5c(F)cc(F)cc5Cl)(CC3)CC4)c2n1` [Example 127, N-{4-[(2-chloro-4,6-difluorophenyl)carbamoyl]bicyclo[2.2.2]oct-1-yl}-5,7-dimethylpyrazolo[1,5-a]pyrimidine-3-carboxamide], the IC50 in test [1] worked out at 220 nM; in test [2], 300 nM.
For `Cc1cc(C)n2ncc(C(=O)NC34CCC(C(=O)Nc5cnccc5Cl)(CC3)CC4)c2n1` [Example 128, N-{4-[(4-chloropyridin-3-yl)carbamoyl]bicyclo[2.2.2]oct-1-yl}-5,7-dimethylpyrazolo[1,5-a]pyrimidine-3-carboxamide] the same measures were 240 nM and 96 nM.
With `O=C(NCC1CCCO1)c1nc[nH]c1C(=O)N[C@H]1CC[C@H](C(=O)Nc2cc(F)ccc2Cl)CC1` (stereo partly drawn) [Example 129, N^5-{trans-4-[(2-chloro-5-fluorophenyl)carbamoyl]cyclohexyl}-N^4-(tetrahydrofuran-2-ylmethyl)-1H-imidazole-4,5-dicarboxamide], the IC50 was determined as 410 nM in test [1] and 34 nM in test [2].
As to `O=C(N[C@H]1CC[C@H](C(=O)Nc2cc(F)c(F)cc2Cl)CC1)c1cnn2cccnc12` [Example 130, N-{trans-4-[(2-chloro-4,5-difluorophenyl)carbamoyl]cyclohexyl}pyrazolo[1,5-a]pyrimidine-3-carboxamide], the IC50 stood at 22 nM in test [1] and 18 nM in test [2].
For `O=C(N[C@H]1CC[C@H](C(=O)Nc2cc(F)c(F)cc2Cl)CC1)c1cnc2cccnn12` [Example 132, N-{trans-4-[(2-chloro-4,5-difluorophenyl)carbamoyl]cyclohexyl}imidazo[1,2-b]pyridazine-3-carboxamide], in that order: 51 nM and 29 nM.
For `O=C(N[C@H]1CC[C@H](C(=O)Nc2c(F)cc(F)cc2Cl)CC1)c1cnc2cccnn12` [Example 133, N-{trans-4-[(2-chloro-4,6-difluorophenyl)carbamoyl]cyclohexyl}imidazo[1,2-b]pyridazine-3-carboxamide] the same measures were 290 nM and 55 nM.
As for `Cc1cc(C)n2ncc(C(=O)N[C@H]3CC[C@H](C(=O)Nc4cc(F)c(F)cc4Cl)CC3)c2n1` [Example 134, N-{trans-4-[(2-chloro-4,5-difluorophenyl)carbamoyl]cyclohexyl}-5,7-dimethylpyrazolo[1,5-a]pyrimidine-3-carboxamide], the results for the IC50 in test [1] and in test [2] were 140 nM and 33 nM, respectively.
For the molecule `Cc1cc(C)n2ncc(C(=O)N[C@H]3CC[C@H](C(=O)Nc4c(F)cc(F)cc4Cl)CC3)c2n1` [Example 135, N-{trans-4-[(2-chloro-4,6-difluorophenyl)carbamoyl]cyclohexyl}-5,7-dimethylpyrazolo[1,5-a]pyrimidine-3-carboxamide], the IC50 was found to be 38 nM in test [1] and 29 nM in test [2].
For `O=C(N[C@H]1CC[C@@]2(CCN(c3ccc(F)cc3Cl)C2=O)CC1)c1cnn2cccnc12` [Example 136, N-[(trans)-2-(2-chloro-4-fluorophenyl)-1-oxo-2-azaspiro[4.5]dec-8-yl]pyrazolo[1,5-a]pyrimidine-3-carboxamide] the same measures were 1.2 nM and 4.7 nM.
For `Cc1cnc2c(C(=O)N[C@H]3CC[C@@]4(CCN(c5ccc(F)cc5Cl)C4=O)CC3)cnn2c1` [Example 137, N-[(trans)-2-(2-chloro-4-fluorophenyl)-1-oxo-2-azaspiro[4.5]dec-8-yl]-6-methylpyrazolo[1,5-a]pyrimidine-3-carboxamide], in that order: 5000 nM and 3.3 nM.
For the molecule `O=C(N[C@H]1CC[C@@]2(CCN(c3ccc(F)cc3Cl)C2=O)CC1)c1cnc2cccnn12` [Example 138, N-[(trans)-2-(2-chloro-4-fluorophenyl)-1-oxo-2-azaspiro[4.5]dec-8-yl]imidazo[1,2-b]pyridazine-3-carboxamide], the IC50 in test [1] was 6.1 nM; in test [2], 7 nM.
With `Cc1cc(C)n2ncc(C(=O)N[C@H]3CC[C@@]4(CCN(c5ccc(F)cc5Cl)C4=O)CC3)c2n1` [Example 139, N-[(trans)-2-(2-chloro-4-fluorophenyl)-1-oxo-2-azaspiro[4.5]dec-8-yl]-5,7-dimethylpyrazolo[1,5-a]pyrimidine-3-carboxamide], the IC50 in test [1] is 1.1 nM; in test [2] it was 4.2 nM.
With `CNC(=O)c1[nH]cnc1C(=O)N[C@H]1CC[C@@]2(CCN(c3ccc(F)cc3Cl)C2=O)CC1` [Example 140, N^4-[(trans)-2-(2-chloro-4-fluorophenyl)-1-oxo-2-azaspiro[4.5]dec-8-yl]-N^5-methyl-1H-imidazole-4,5-dicarboxamide], the IC50 in test [1] is 0.86 nM; in test [2], 6.9 nM.
In the case of `CCNC(=O)c1[nH]cnc1C(=O)N[C@H]1CC[C@@]2(CCN(c3ccc(F)cc3Cl)C2=O)CC1` [Example 141, N^4-[(trans)-2-(2-chloro-4-fluorophenyl)-1-oxo-2-azaspiro[4.5]dec-8-yl]-N^5-ethyl-1H-imidazole-4,5-dicarboxamide], the values for the IC50 in test [1] and in test [2] were 1.8 nM and 6.5 nM, respectively.
For `CNC(=O)c1nc[nH]c1C(=O)N[C@H]1CC[C@H](C(=O)Nc2cc(C(F)(F)F)ccc2Cl)CC1` [Example 142, N^5-(trans-4-{[2-chloro-5-(trifluoromethyl)phenyl]carbamoyl}cyclohexyl)-N^4-methyl-1H-imidazole-4,5-dicarboxamide] the same measures were 68 nM and 80 nM.
For `COCC(C)NC(=O)c1nc[nH]c1C(=O)N[C@H]1CC[C@H](C(=O)Nc2cc(C(F)(F)F)ccc2Cl)CC1` (stereo partly drawn) [Example 143, N^5-(trans-4-{[2-chloro-5-(trifluoromethyl)phenyl]carbamoyl}cyclohexyl)-N^4-(1-methoxypropan-2-yl)-1H-imidazole-4,5-dicarboxamide], in that order: 220 nM and 150 nM.
